# Test: During breakage test combing (weight of broken hairs after 20 combings)
# Conditions: bleached strands, treated at 15%, combed 20 times, vs bleached untreated reference
# Description: All samples (hair strands) have been combed for 20 times and broken hairs have been weighted (with 0.0001 g accuracy, METTLER TOLEDO EXCELLENCE analytical scale).
compound,measurement,value
NCCCOCCOCCOCCCN.O=C(O)C=CC(=O)O.O=C(O)C=CC(=O)O [bis-aminopropyl diglycol dimaleate],reduction in broken hairs,50.00%
